Measured values taken from patent US8163513B2, “Method for determining the total clotting activity of a blood or plasma sample” (JenAffin GmbH, priority 2005, dated 2012).

Tested on: thrombin
Assay: THROGA (thrombin generation assay): maximal thrombin generation in citrate blood or plasma of treated patients
Format: in vivo, human
Method: For maximal generation of thrombin, a small amount of anti-coagulant blood or plasma is used. For this, citrate, but also every other anti-coagulant may be used. 0.1 ml citrate blood or citrate plasma each are put into a reference tube (NaCl) and an activator tube (tissue factor+mixture of ellagic acid and phospholipids) in which a defined amount of hirudin is present. After closing the reaction vessels, the two containers are mixed in a mini shaker at 550 rpm at room temperature for 25 minutes. The activation of coagulation is subsequently terminated with a stop solution containing EDTA and the remaining not-consumed free hirudin is determined with a precise detection method. For the exact measurement of the hirudin content in the reaction vessels, a commercial available chromogenic hirudin determination method via chromogenic substrate (ECA, Ecarin Chromogenic Assay, WO 0046602) is employed.
For one determination, 100 μl citrate blood or citrate plasma, respectively, are put into one activator tube and one reference tube each. In order to avoid evaporation, the tubes should be closed after dissolving (“Lösen”). Subsequently, the tubes are put into a shaker for 30-60 minutes. In order to terminate the reaction after shaking, 1000 μl stop reagent are added into each tube and carefully mixed with the pipette.
In both THROGA-samples (reference tube and activator tube) the anti-thrombin units (ATU) are now determined via ECA-H.
From the ATU determined in reference tube and activator tube, respectively, the thrombin units formed in the plasma or blood sample are calculated with the following formula: ETP=R−A • ETP maximal endogenic thrombin potential, thrombin units formed in 1 ml blood or plasma • R anti-thrombin units in the reference tube (ATU/ml blood or plasma) • A anti-thrombin units in the activator tube (ATU/ml blood or plasma) Generating a Reference Curve

[1] = patient two under falithrom, blood
[2] = patient two under falithrom, plasma

COC(=O)[C@H](c1ccccc1Cl)N1CCc2sccc2C1 [clopidogrel]
ATU/ml; TU/ml (generated thrombin, THROGA-value), blood (patient one, state after cerebral insult, after 8 weeks of clopidogrel, 1.5 tablets daily (112.5 mg), blood, norm 78±13 TU/ml, 99.5 prior to therapy): 82.2 TU/ml | THROGA-values in all further controls (patient one, under clopidogrel therapy): normal | ATU/ml; TU/ml (generated thrombin, THROGA-value), plasma (patient one, after 8 weeks of clopidogrel, 1.5 tablets daily (112.5 mg), plasma, N: 122±19 TU/ml, 118.5 prior to therapy): 116.9 TU/ml

CCC(c1ccccc1)c1c(O)c2ccccc2oc1=O (stereo not shown) [falithrom]
% of the normal generable thrombin amount in the blood [1]: 60% | generated thrombin in the blood [1]: 46.3 TU/ml | bleeding tendency (patient two under falithrom, judged from the THROGA-value in blood): no bleeding tendency can be observed | % of the normal plasma value [2]: 32% | generated thrombin in the plasma [2]: 39.3 TU/ml | Difference control (A) minus activated sample (B), blood (patient two, thrombophilia upon gammopathy, thrombosis prophylaxis with falithrom, blood, use of the kit): 46.3 ATU/ml | Difference control (A) minus activated sample (B), plasma (patient two, thrombosis prophylaxis with falithrom, plasma, use of the kit): 39.3 ATU/ml
